Measured values: ChEMBL document CHEMBL4402510, “Caprazamycins: Promising lead structures acting on a novel antibacterial target MraY” (Eur J Med Chem, 2019)
Converted amounts (≈) assume the structure as drawn.

Experiments:
[1] = system: Enterococcus faecium; test: Antibacterial activity against Enterococcus faecium ATCC 19434; type: functional
[2] = system: Enterococcus faecalis; test: Antibacterial activity against Enterococcus faecalis ATCC 29212; type: functional
[3] = system: Enterococcus faecalis; test: Antibacterial activity against Enterococcus faecalis SR7914 (VRE); type: functional
[4] = system: Staphylococcus aureus; test: Antibacterial activity against methicillin susceptible Staphylococcus aureus ATCC 29213; type: functional
[5] = system: Staphylococcus aureus; test: Antibacterial activity against methicillin resistant Staphylococcus aureus SR3637; type: functional
[6] = system: Enterococcus faecium; test: Antibacterial activity against Enterococcus faecium SR7917 (VRE); type: functional
[7] = molecular target: T1, Phospho-N-acetylmuramoyl-pentapeptide-transferase (Staphylococcus aureus, UniProt P0C1R8); test: Inhibition of MraY in Staphylococcus aureus
T1 sequence (P0C1R8 whole entry): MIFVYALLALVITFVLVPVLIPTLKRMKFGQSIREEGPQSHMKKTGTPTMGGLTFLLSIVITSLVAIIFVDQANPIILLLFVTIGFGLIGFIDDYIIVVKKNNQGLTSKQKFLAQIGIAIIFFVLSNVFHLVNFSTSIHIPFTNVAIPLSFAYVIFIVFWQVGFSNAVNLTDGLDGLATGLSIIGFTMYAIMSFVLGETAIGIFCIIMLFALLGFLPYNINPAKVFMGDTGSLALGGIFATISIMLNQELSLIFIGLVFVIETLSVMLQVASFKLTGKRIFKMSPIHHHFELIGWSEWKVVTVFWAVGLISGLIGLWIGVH

[8] = system: Mycobacterium tuberculosis; test: Antibacterial activity against Mycobacterium tuberculosis H37Rv; type: functional
[9] = system: Staphylococcus aureus; test: Antibacterial activity against methicillin resistant Staphylococcus aureus No. 5; type: functional
[10] = system: Mycobacterium avium subsp. paratuberculosis; test: Antibacterial activity against Mycobacterium avium subsp. paratuberculosis ATCC 43015; type: functional
[11] = system: Bacillus subtilis; test: Antibacterial activity against Bacillus subtilis PCI 219; type: functional
[12] = system: Mycolicibacterium smegmatis; test: Antibacterial activity against Mycobacterium smegmatis ATCC 607; type: functional
[13] = system: Mycobacterium tuberculosis; test: Antibacterial activity against Mycobacterium tuberculosis JCM 6384; type: functional
[14] = system: Staphylococcus aureus; test: Antibacterial activity against Staphylococcus aureus FDA 209P; type: functional
[15] = system: Mycolicibacterium vaccae; test: Antibacterial activity against Mycobacterium vaccae ATCC 15483; type: functional
[16] = system: Streptococcus pneumoniae; test: Antibacterial activity against Streptococcus pneumoniae PCI 602; type: functional
[17] = system: Escherichia coli; test: Antibacterial activity against Escherichia coli K-12; type: functional
[18] = Antibacterial activity against Mycobacterium avium subsp. avium ATCC 25291; type: functional
[19] = system: Mycobacterium tuberculosis; test: Antibacterial activity against Mycobacterium tuberculosis Kurono; type: functional
[20] = system: Mycolicibacterium phlei; test: Antibacterial activity against Mycobacterium phlei; type: functional
[21] = system: Staphylococcus aureus; test: Antibacterial activity against methicillin resistant Staphylococcus aureus MS16526; type: functional
[22] = system: Haemophilus influenzae; test: Antibacterial activity against Haemophilus influenzae ATCC 10211; type: functional

| Compound | MIC [2] | MIC [3] | MIC [8] | MIC [9] | MIC [10] | MIC [11] | MIC [12] | MIC [13] | MIC [14] | MIC [15] | MIC [16] | MIC [17] | MIC [18] | MIC [19] | MIC [20] | MIC [21] | other results |
| --- | --- | --- | --- | --- | --- | --- | --- | --- | --- | --- | --- | --- | --- | --- | --- | --- | --- |
| CCCCCCCCCCCCCCCCC[C@H]1CN(C)[C@@H]([C@H](O[C@@H]2O[C@H](CN)[C@@H](O)[C@H]2O)[C@H]2O[C@@H](n3ccc(=O)[nH]c3=O)[C@H](O)[C@@H]2O)C(=O)N(C)[C@@H]1C(=O)O | 4 µg/mL (≈ 5.01 µM) | 8 µg/mL (≈ 10 µM) | – | – | – | – | – | – | – | – | – | – | – | – | – | – | MIC [1]: 8 µg/mL (≈ 10 µM); MIC [4]: 8 µg/mL (≈ 10 µM); MIC [5]: 8 µg/mL (≈ 10 µM); MIC [6]: 8 µg/mL (≈ 10 µM); IC50 [7]: 6.9 µM |
| CCCCCCCCCNC(=O)C1=CCN(C)[C@@H]([C@H](O[C@@H]2O[C@H](CN)[C@@H](O)[C@H]2O)[C@H]2O[C@@H](n3ccc(=O)[nH]c3=O)[C@H](O)[C@@H]2O)C(=O)N1C | – | – | 1.56 µg/mL (≈ 2.28 µM) | 50 µg/mL (≈ 73.2 µM) | 0.2 µg/mL (≈ 0.293 µM) | 1.56 µg/mL (≈ 2.28 µM) | 0.78 µg/mL (≈ 1.14 µM) | 0.2 µg/mL (≈ 0.293 µM) | 6.25 µg/mL (≈ 9.15 µM) | 12.5 µg/mL (≈ 18.3 µM) | > 100 µg/mL | > 100 µg/mL | 1.56 µg/mL (≈ 2.28 µM) | 0.78 µg/mL (≈ 1.14 µM) | 3.13 µg/mL (≈ 4.58 µM) | 50 µg/mL (≈ 73.2 µM) | – |
| CCCCCCCCCCCCCCCC(=O)OC[C@@H]1[C@H](C(=O)N(C)C)[C@@H]([C@H]2O[C@@H](n3ccc(=O)[nH]c3=O)[C@H](O)[C@@H]2O)ON1CCCN | 16 µg/mL (≈ 23.5 µM) | 4 µg/mL (≈ 5.87 µM) | – | – | – | – | – | – | – | – | – | – | – | – | – | – | MIC [22]: 0.5 µg/mL (≈ 0.733 µM) |
| CCCCCCCCCCCCCCCCC[C@H]1CN[C@@H]([C@H](O[C@@H]2O[C@H](CN)[C@@H](O)[C@H]2O)[C@H]2O[C@@H](n3ccc(=O)[nH]c3=O)[C@H](O)[C@@H]2O)C(=O)N(C)[C@@H]1C(=O)O | 8 µg/mL (≈ 10.2 µM) | 16 µg/mL (≈ 20.4 µM) | – | – | – | – | – | – | – | – | – | – | – | – | – | – | MIC [1]: 8 µg/mL (≈ 10.2 µM); MIC [4]: 8 µg/mL (≈ 10.2 µM); MIC [5]: 8 µg/mL (≈ 10.2 µM); MIC [6]: 16 µg/mL (≈ 20.4 µM); IC50 [7]: 3.8 µM |
| CCCCCCCCCCCCCCCCCCNC(=O)C1=CCN(C)[C@@H]([C@H](O[C@@H]2O[C@H](CN)[C@@H](O)[C@H]2O)[C@H]2O[C@@H](n3ccc(=O)[nH]c3=O)[C@H](O)[C@@H]2O)C(=O)N1C | – | – | 1.56 µg/mL (≈ 1.93 µM) | 6.25 µg/mL (≈ 7.73 µM) | 0.39 µg/mL (≈ 0.482 µM) | < 0.2 µg/mL | 6.25 µg/mL (≈ 7.73 µM) | 0.78 µg/mL (≈ 0.964 µM) | 6.25 µg/mL (≈ 7.73 µM) | 3.13 µg/mL (≈ 3.87 µM) | > 100 µg/mL | > 100 µg/mL | 0.78 µg/mL (≈ 0.964 µM) | 1.56 µg/mL (≈ 1.93 µM) | 3.13 µg/mL (≈ 3.87 µM) | 6.25 µg/mL (≈ 7.73 µM) | – |
| CN1C(=O)[C@H]([C@H](O[C@@H]2O[C@H](CN)[C@@H](O)[C@H]2O)[C@H]2O[C@@H](n3ccc(=O)[nH]c3=O)[C@H](O)[C@@H]2O)N(C)CC=C1C(=O)NC1CCCCCCCCCCC1 | – | – | 1.56 µg/mL (≈ 2.16 µM) | > 100 µg/mL | 0.05 µg/mL (≈ 0.0692 µM) | 1.56 µg/mL (≈ 2.16 µM) | 3.13 µg/mL (≈ 4.33 µM) | < 0.05 µg/mL | 100 µg/mL (≈ 138 µM) | 25 µg/mL (≈ 34.6 µM) | > 100 µg/mL | > 100 µg/mL | 3.13 µg/mL (≈ 4.33 µM) | 1.56 µg/mL (≈ 2.16 µM) | 6.25 µg/mL (≈ 8.65 µM) | > 100 µg/mL | – |
| CCCCCCCCCCCCCCNC(=O)C1=CCN(C)[C@@H]([C@H](O[C@@H]2O[C@H](CN)[C@@H](O)[C@H]2O)[C@H]2O[C@@H](n3ccc(=O)[nH]c3=O)[C@H](O)[C@@H]2O)C(=O)N1C | – | – | 1.56 µg/mL (≈ 2.07 µM) | 6.25 µg/mL (≈ 8.3 µM) | 0.39 µg/mL (≈ 0.518 µM) | 0.2 µg/mL (≈ 0.266 µM) | 1.56 µg/mL (≈ 2.07 µM) | 0.39 µg/mL (≈ 0.518 µM) | 3.13 µg/mL (≈ 4.16 µM) | 1.56 µg/mL (≈ 2.07 µM) | 12.5 µg/mL (≈ 16.6 µM) | > 100 µg/mL | 3.13 µg/mL (≈ 4.16 µM) | 1.56 µg/mL (≈ 2.07 µM) | 0.78 µg/mL (≈ 1.04 µM) | 3.13 µg/mL (≈ 4.16 µM) | – |
| CCCCCCCCCCCNC(=O)C1=CCN(C)[C@@H]([C@H](O[C@@H]2O[C@H](CN)[C@@H](O)[C@H]2O)[C@H]2O[C@@H](n3ccc(=O)[nH]c3=O)[C@H](O)[C@@H]2O)C(=O)N1C | – | – | 1.56 µg/mL (≈ 2.19 µM) | 25 µg/mL (≈ 35.2 µM) | 0.2 µg/mL (≈ 0.281 µM) | 0.39 µg/mL (≈ 0.549 µM) | < 0.2 µg/mL | 0.2 µg/mL (≈ 0.281 µM) | 6.25 µg/mL (≈ 8.79 µM) | 1.56 µg/mL (≈ 2.19 µM) | 50 µg/mL (≈ 70.3 µM) | > 100 µg/mL | 3.13 µg/mL (≈ 4.4 µM) | 1.56 µg/mL (≈ 2.19 µM) | 0.39 µg/mL (≈ 0.549 µM) | 12.5 µg/mL (≈ 17.6 µM) | – |
